Experimental data reported in ChEMBL document CHEMBL5729575, “Alkynyl-substituted heterocyclic compound, preparation method therefor and medical use thereof” (2023).
pIC50: −log10 of the molar value.

Experiments:
[1] = biological target: Fibroblast growth factor receptor 2 (Homo sapiens, UniProt P21802); test: FGFR2 Activity Inhibition Test: The reaction buffer contains the following components: 5-fold diluted enzymatic buffer/kinase 5x(Cisbio, Cat No. 62EZBFDD)(its main component is 50nM HEPES, pH 7.0), 5mM MgCl2 and 1 mM DTT, a human recombinant FGFR2 catalytic domain protein (amino acid 400-821) which was purchased from Yiqiao Shenzhou Biotech Co. Ltd., a 0.45ng/uL kinase solution diluted by the …
[2] = biological target: Fibroblast growth factor receptor 3 (Homo sapiens, UniProt P22607); test: FGFR3 Activity Inhibition Test: The reaction buffer contains the following components: 5-fold diluted enzymatic buffer/kinase 5x(Cisbio, Cat No. 62EZBFDD)(its main component is 50nM HEPES, pH 7.0), 5mM MgCl2 and 1 mM DTT, a […] which was purchased from Yiqiao Shenzhou Biotech Co. Ltd., a 0.3 ng/uL kinase solution diluted by the …
Chain of Fibroblast growth factor receptor 3 (P22607 whole entry): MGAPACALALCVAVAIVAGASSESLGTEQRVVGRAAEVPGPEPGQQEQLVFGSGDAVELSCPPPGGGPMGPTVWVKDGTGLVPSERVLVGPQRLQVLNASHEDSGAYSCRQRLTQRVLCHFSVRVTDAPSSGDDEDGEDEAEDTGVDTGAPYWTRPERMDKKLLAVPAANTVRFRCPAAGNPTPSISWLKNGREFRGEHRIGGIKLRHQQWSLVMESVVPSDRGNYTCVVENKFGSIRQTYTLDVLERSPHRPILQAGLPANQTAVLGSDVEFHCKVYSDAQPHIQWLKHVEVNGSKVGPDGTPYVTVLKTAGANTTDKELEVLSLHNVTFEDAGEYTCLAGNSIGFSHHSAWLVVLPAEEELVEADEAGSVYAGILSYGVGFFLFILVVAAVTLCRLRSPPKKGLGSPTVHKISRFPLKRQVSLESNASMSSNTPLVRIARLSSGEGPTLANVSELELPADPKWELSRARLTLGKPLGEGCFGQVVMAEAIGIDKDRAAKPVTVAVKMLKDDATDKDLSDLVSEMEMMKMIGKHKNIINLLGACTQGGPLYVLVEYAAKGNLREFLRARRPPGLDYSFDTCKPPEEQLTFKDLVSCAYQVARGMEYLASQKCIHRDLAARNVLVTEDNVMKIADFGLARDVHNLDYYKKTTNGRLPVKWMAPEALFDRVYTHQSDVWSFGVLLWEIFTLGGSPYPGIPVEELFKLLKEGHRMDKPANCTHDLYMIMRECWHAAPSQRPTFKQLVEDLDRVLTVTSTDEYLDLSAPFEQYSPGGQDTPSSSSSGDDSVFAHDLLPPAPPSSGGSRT

Chain of Fibroblast growth factor receptor 2 (P21802 whole entry, the tested form may be a part): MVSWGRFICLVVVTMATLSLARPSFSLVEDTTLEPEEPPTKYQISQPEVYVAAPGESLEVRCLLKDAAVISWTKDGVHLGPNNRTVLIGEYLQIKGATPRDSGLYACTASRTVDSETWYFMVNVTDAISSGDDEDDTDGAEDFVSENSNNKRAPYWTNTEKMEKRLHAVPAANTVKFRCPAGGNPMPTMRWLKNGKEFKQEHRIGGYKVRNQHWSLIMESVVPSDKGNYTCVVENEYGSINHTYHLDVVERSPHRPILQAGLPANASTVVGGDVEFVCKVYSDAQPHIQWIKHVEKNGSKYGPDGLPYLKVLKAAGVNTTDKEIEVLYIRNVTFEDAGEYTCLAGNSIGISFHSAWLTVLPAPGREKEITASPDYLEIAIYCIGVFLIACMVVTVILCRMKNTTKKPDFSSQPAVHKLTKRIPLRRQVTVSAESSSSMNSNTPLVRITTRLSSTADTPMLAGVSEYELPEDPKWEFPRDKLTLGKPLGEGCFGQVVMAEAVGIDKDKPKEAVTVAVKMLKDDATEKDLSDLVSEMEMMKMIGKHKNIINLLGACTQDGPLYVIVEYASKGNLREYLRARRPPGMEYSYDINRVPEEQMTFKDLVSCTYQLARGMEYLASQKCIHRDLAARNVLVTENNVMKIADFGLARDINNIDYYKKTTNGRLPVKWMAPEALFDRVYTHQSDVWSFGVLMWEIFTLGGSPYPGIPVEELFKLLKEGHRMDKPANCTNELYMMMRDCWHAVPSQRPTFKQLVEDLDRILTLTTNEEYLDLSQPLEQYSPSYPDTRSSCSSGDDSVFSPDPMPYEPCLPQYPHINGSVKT

pIC50 [1]: > 8.00
pIC50 [2]: > 8.00
SMILES: CC#CC(=O)N1CC[C@H](n2nc(C#Cc3cc(OC)cc(OC)c3)c(C(N)=O)c2N)C1
